Reference: patent US5989846A, “Assays to identify inducers of plant defense resistance” (Rutgers, The State University of New Jersey, priority 1995, dated 1999)
Counter-ions that a name gives are not always drawn. Like-named read-outs stand apart in the source and are kept apart here.

What was measured:
[1] = biological target: T1, catalase activity of SABP (Nicotiana tabacum, UniProt P49319); assay: Catalase activity of highly purified SABP (luminol method); assay type: biochemical, tobacco; settings: for inhibition at 1000 µM: 0.05 h, 1 mM SA or analogue, 1 mM H2O2, 500 ng highly purified SABP; for Inhibition of the catalase activity of SABP (in words): compared with SA
T1 sequence (P49319 1-492): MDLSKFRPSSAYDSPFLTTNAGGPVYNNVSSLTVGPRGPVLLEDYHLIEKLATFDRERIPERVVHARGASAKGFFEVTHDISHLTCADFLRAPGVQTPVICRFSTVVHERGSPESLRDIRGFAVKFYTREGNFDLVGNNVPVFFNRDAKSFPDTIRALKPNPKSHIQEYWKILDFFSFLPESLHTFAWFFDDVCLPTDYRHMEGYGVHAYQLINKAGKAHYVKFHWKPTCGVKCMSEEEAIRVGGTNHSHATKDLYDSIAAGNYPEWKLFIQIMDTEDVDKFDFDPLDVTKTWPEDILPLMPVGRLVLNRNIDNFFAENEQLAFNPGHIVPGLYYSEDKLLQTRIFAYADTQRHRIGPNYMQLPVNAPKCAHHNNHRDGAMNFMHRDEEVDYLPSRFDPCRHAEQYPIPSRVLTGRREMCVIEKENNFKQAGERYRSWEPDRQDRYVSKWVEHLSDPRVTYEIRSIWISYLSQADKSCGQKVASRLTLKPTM
Experimental: Aliquots (50 μl) were removed from the assay mixture at 30 second intervals to assay for amount of H2 O2 remaining using the luminol method as has been described by Warm and Laties, Phytochem. […] The tube was placed in the measuring chamber and assay was initiated with automatic injection into the mixture of 100 μl of 0.5 mM K3 Fe(CN)6 in 0.2N NH4 OH, pH 9.5. Measurements were integrated over 5 second periods. H2 O2 was calculated from the standard curve constructed with known amounts of H2 O2. Rate constants of SABP catalase activity in the presence or absence of SA or its analogues were then calculated based on a first-order mechanism.

[2] = system: resistance or PR gene expression; set-up: key: ++: indicates a high level of biological activity; +: indicates a lower level of biological activity; ±: indicates low, but detectable biological activity in some assays; -: indicates no biological activity; settings: Table 3; values reported in literature; cited from earlier work
[3] = system: salicylic acid binding protein; assay: Competitive [14C] salicylic acid binding assay (spin-column); set-up: species or system tobacco; settings: [14C] salicylic acid 20 μM; for Inhibition (%) 2×: 40 μM (2×) unlabeled competitor; for Inhibition (%) 10×: 200 μM (10×) unlabeled competitor
Experimental: The 180 kDa native binding protein isolated was tested for binding affinity and specificity. A competitive assay was established using salicylic acid binding protein fractionated from plants as previously described.
A key element during the characterization and the purification process is a simple, inexpensive, sensitive and reliable method for determining the salicylic acid binding activity. For this purpose, spin-column exclusion chromatography was used to separate the bound [^14 C] salicylic acid (excluded) from the bulk free salicylic acid (included). Specifically, a 1.5 ml Eppendorf tube was punctured at the tip with a 20-gauge needle and a small amount of glass wool was added to cover the small hole. The tube was then filled with Bio-Gel P-6DG desalting gel (exclusion limit 6 KDa; purchased from Bio-Rad, Melville, N.Y.) which have been swollen in water. An alternative gel is Sephadex G-25 fine (from Pharmacia, Piscataway, N.J.). Excess liquid in the gel was removed and centrifuged for 5 minutes at full speed in a Dynamic centrifuge (Becton Dickinson). The process was then repeated several times until the gel filled the tube. After incubation of an aliquot of the extract or column fractions for 2 hr at 4° C. with 5 μM-20 μM [^14 C salicylic acid] (specifically radioactivity 55 Ci/mol; purchased from New England Nuclear), 150 μl of proteins binding sample was loaded onto the tube column, which was then rapidly centrifuged for 2 minutes at full speed and the solution of proteins and bound [^14 C-salicylic acid] that was excluded from the gel was collected into another tube that had been placed under the tube column during the centrifugation. One hundred microliters of this solution was then used to determine the amount of bound salicylic acid. […] For example, to determine the inhibitory effect of various salicylic acid analogues on salicylic acid binding activity, these individual analogues were included in the binding mixture containing both the protein and [^14 C] salicylic acid during the 2 hr incubation, and resulting binding activity was determined in comparison to the activity in the absence of these analogues. Likewise, to determine the effect of pH and antioxidants on the binding activity the protein sample was either dialyzed against a large volume of buffers with different pH or antioxidants were added to the protein sample to various concentrations and the resulting binding activities were then determined with the spin-column method in comparison with the activity determined in the absence of these treatments.

SABP = system: SABP; set-up: concentration or dose not given beside the values; settings: Table 6; previously published data (Chen et al. 1993); cited from earlier work
ascorbate peroxidase = assay: Ascorbate peroxidase activity in tobacco leaf extracts; assay type: biochemical, Nicotiana tabacum cv. Xanthi nc; settings: 200 μM compound, corrected for quenching of auto oxidation
Experimental: […] Two grams of leaves from 6-8 week old tobacco plants (Nicotiana tabacum cv. Xanthi nc) grown at 22° C. in a 14 hr light cycle were homogenized under liquid nitrogen using a pestle and mortar.
To obtain ascorbate peroxidase-containing extracts, the soluble proteins were extracted by grinding the powder in 10 ml of 100 mM potassium phosphate, pH 7, containing […] ascorbate and 1% (weight/volume) polyvinylpyrrolidone, with a small amount of quartz sand. The homogenate was centrifuged at 14,000 g for 5 min. […] The pellet resulting from centrifugation (14,000 g, 15 min.) was resuspended in extraction buffer (100 mM potassium phosphate, pH7, containing 0.25 mM ascorbate and 1% (weight/volume) polyvinylpyrrolidone) and desalted on a PD-10 column (Pharmacia) equilibrated with 50 mM potassium phosphate, pH 7, containing 100 μM ascorbate. The extract was used immediately. […] The amount of protein per assay was 30-50 μg. Oxidation of ascorbate was followed by the decrease in the absorbance at 290 nm.
The values illustrated in FIG. 17 are the mean values for three replicated assays.

[4] = system: salicylic acid binding protein; assay: Binding of 14C-labelled ligands by partially purified SABP; set-up: species or system tobacco; settings: for [14C] radioactivity bound, with protein / [14C] radioactivity bound, without protein: 50 μM ligand, n = 3, SD; for [14C] radioactivity bound, with protein: 3 mg/ml partially purified SABP; for [14C] radioactivity bound, without protein: no protein
Experimental: Binding was assayed with 3 mg/ml of the
A key element during the characterization and the purification process is a simple, inexpensive, sensitive and reliable method for determining the salicylic acid binding activity. For this purpose, spin-column exclusion chromatography was used to separate the bound [^14 C] salicylic acid (excluded) from the bulk free salicylic acid (included). Specifically, a 1.5 ml Eppendorf tube was punctured at the tip with a 20-gauge needle and a small amount of glass wool was added to cover the small hole. The tube was then filled with Bio-Gel P-6DG desalting gel (exclusion limit 6 KDa; purchased from Bio-Rad, Melville, N.Y.) which have been swollen in water. An alternative gel is Sephadex G-25 fine (from Pharmacia, Piscataway, N.J.). Excess liquid in the gel was removed and centrifuged for 5 minutes at full speed in a Dynamic centrifuge (Becton Dickinson). The process was then repeated several times until the gel filled the tube. After incubation of an aliquot of the extract or column fractions for 2 hr at 4° C. with 5 μM-20 μM [^14 C salicylic acid] (specifically radioactivity 55 Ci/mol; purchased from New England Nuclear), 150 μl of proteins binding sample was loaded onto the tube column, which was then rapidly centrifuged for 2 minutes at full speed and the solution of proteins and bound [^14 C-salicylic acid] that was excluded from the gel was collected into another tube that had been placed under the tube column during the centrifugation. One hundred microliters of this solution was then used to determine the amount of bound salicylic acid. With this binding assay, characterization of the salicylic acid binding protein can be carried out very rapidly. For example, to determine the inhibitory effect of various salicylic acid analogues on salicylic acid binding activity, these individual analogues were included in the binding mixture containing both the protein and [^14 C] salicylic acid during the 2 hr incubation, and resulting binding activity was determined in comparison to the activity in the absence of these analogues. Likewise, to determine the effect of pH and antioxidants on the binding activity the protein sample was either dialyzed against a large volume of buffers with different pH or antioxidants were added to the protein sample to various concentrations and the resulting binding activities were then determined with the spin-column method in comparison with the activity determined in the absence of these treatments.

TMV = assay type: in vivo, tobacco mosaic virus
Experimental: The SA/SAG valves are given in micrograms per gram fresh weight of leaf tissue and represent averages of values from 3-6 treated plants at 6 days past injection. […] For determination of reduction in lesion size, longitudinal halves of 2 leaves on 3-6 plants were injection with chemicals, and six days later the entire leaf was infected with TMV. Twenty lesions were measured on each half of the leaf seven days post infection; the values given represent the average percent reduction in lesion diameter in the treated leaf half compared to the untreated half.

| Molecule | inhibition at 1000 µM [1] [%] | Biological activity [2] | Inhibition (%) 2× [3] [%] | Inhibition (%) 10× [3] [%] | Inhibition (%) [14C]SA binding (SABP) [%] | other results |
| --- | --- | --- | --- | --- | --- | --- |
| O=C(O)c1cccc(O)c1O [2,3-Dihydroxybenzoic acid] | 15.3 | ± | 1 | 10 | 9 | Inhibition of the catalase activity of SABP (in words) [1]: poor inhibitor |
| O=C(O)c1ccc(O)cc1O [2,4-Dihydroxybenzoic acid] | 5.2 | - | -1 | -2 | -4 |  |
| O=C(O)c1cc(O)ccc1O [2,5-Dihydroxybenzoic acid] | 3.2 | - | 1 | -1 | 1 |  |
| O=C(O)c1c(O)cccc1O [2,6-Dihydroxybenzoic acid] | 91.3 | ++ | 51 | 91 | 92 | Inhibition of the catalase activity of SABP (in words) [1]: somewhat stronger; % Inhibition of ascorbate peroxidase (ascorbate peroxidase): 72 ± 8% |
| O=C(O)c1ccc(O)c(O)c1 [3,4-Dihydroxybenzoic acid] | 5.1 |  |  |  | 0 |  |
| O=C(O)c1ccc(O)cc1 [4-Hydroxybenzoic acid] | 4.1 | - | 1 | -2 | -2 | % Inhibition of ascorbate peroxidase (ascorbate peroxidase): 0 ± 6% |
| CC(=O)Oc1ccccc1C(=O)O [Acetylsalicylic acid] | 53.6 | ++ | 25 | 57 | 48 | Inhibition of the catalase activity of SABP (in words) [1]: weaker than SA; Binding by the salicylic acid binding protein ([4]; conclusion from Table 4): not actually bound |
| [Ba+2].[Cl-].[Cl-] [BaCl2, barium chloride] |  |  |  |  |  | Reduction in lesion size (%) (TMV; in vivo): 60% |
| O=C(O)[14c]1ccccc1O [[^14 C] salicylic acid] |  |  |  |  |  | [14C] radioactivity bound, with protein [4]: 989 ± 78 dpm/100 μl; [14C] radioactivity bound, without protein [4]: 89 ± 7 dpm/100 μl |
| CC(=O)Oc1ccccc1[14C](=O)O [[carboxyl-^14 C] acetylsalicylic acid] |  |  |  |  |  | [14C] radioactivity bound, with protein [4]: 397 ± 25 dpm/100 μl; [14C] radioactivity bound, without protein [4]: 112 ± 10 dpm/100 μl |
| Cc1ncc(C[n+]2csc(CCO)c2C)c(N)n1 [thiamine-HCl] |  |  |  |  |  | Reduction in lesion size (%) (TMV; in vivo): 71% |
| CCC(N)C(=O)O (stereo not drawn) [α-amino butyric acid] |  |  |  |  |  | Reduction in lesion size (%) (TMV; TMV infection six days after injection, lesions measured seven days post infection, treated vs untreated leaf half): 63% |
| [Acetyl-^14 C] acetylsalicylic acid |  |  |  |  |  | [14C] radioactivity bound, with protein [4]: 96 ± 10 dpm/100 μl; [14C] radioactivity bound, without protein [4]: 104 ± 9 dpm/100 μl |
